Measured values published in patent publication US20110319392A1, “Thiazole Sulfonamide And Oxazole Sulfonamide Kinase Inhibitors” (priority 2009, published 2011).
pIC50: −log10 of the molar value. Structures can show the parent of a compound that is named as a salt.

Legend:
SK-MEL-3 tumor cells = experiment: Cell growth inhibition assay (CellTiter-Glo), SK-MEL-3; type: cell-based, Human; conditions: for pIC50: Homo sapiens, SK-MEL3
Method: (§1) Human breast tumor cells (BT474) were cultured in RPMI (Mediatech […]), containing 10% FBS (JRH Biosciences 12176) and 1% penicillin-streptomycin (Invitrogen 15140). Human head and neck tumor cells (HN5) were cultured in high glucose DMEM (Mediatech 50-013-PB) containing 10% FBS and 1% penicillin-streptomycin. Human colon tumor cells (Colo205) were cultured in RPMI (Mediatech 50-020-PB) containing 10% FBS and 1% penicillin-streptomycin. Human melanoma cancer cells (SK-MEL-28) were cultured in EMEM with nonessential amino acids (Mediatech 50-011-PB) containing 10% FBS, 1% sodium pyruvate (JT Baker 3354-04), and 1% penicillin-streptomycin. Human melanoma cancer cells (A375P F11s) were cultured in RPMI (Mediatech 50-020-PB) containing 10% FBS, 1% sodium pyruvate, and 1% penicillin-streptomycin. Human colon cancer cells (HT-29) were cultured in high glucose DMEM (Mediatech 50-013-PB) containing 10% FBS and 1% penicillin-streptomycin. Human melanoma cancer cells (SK-MEL-3) were cultured in McCoy's 5A (50-025-PB) containing 15% FBS, and 1% penicillin-streptomycin. All cell lines were maintained at 37° C. in a humidified 5% CO2, 95% air incubator. Cells were harvested using trypsin/EDTA (Invitrogen 25200), counted using a haemocytometer, and plated. For 96-well assays (using white full-area NUNC plates cat. #136102), cells were plated in 105 μL at the following densities (cells/well): HNS, 500; Colo 205, 500; SK-MEL-28, 500; A375P F11s, 500; HT-29, 500; SK-MEL-3, 500; and BT474, 3000. For 384-well assays (white full-area NUNC plates, cat. #781080), cells were plated in 48 μL at the following densities (cells/well): HNS, 500; Colo205, 500; SK-MEL-28, 500; A375P F11s, 500; HT-29, 500; SK-MEL-3, 500; and BT474, 2000.
(§2) The next day, compounds were diluted as follow: For 96-well assays, 13.5 μL of compound in DMSO were diluted using nine (9) serial 1:3 dilutions of 4.5 μL in 9 of DMSO. Medium (270 μL/well of RPMI with 10% FBS and 1% penicillin-streptomycin) was added to the plates. Aliquots (7 μL) were added to cells in the final assay giving a final DMSO concentration of 0.2%. For 384-well assays, 15 μL of compound in DMSO were diluted using nine (9) serial 1:3 dilutions of 5 μL in 10 μL of DMSO, followed by a further dilution of 5 μL of compound with 95 μL of medium, of which 2 μL were added to cells in the final assay giving a final DMSO concentration of 0.2%. Cells were incubated at 37° C., 5% CO2 for 3 days.
(§3) Total ATP was measured (as a surrogate estimate of cell number) using CellTiter-Glo® reagent (Promega G7571). Briefly, plates were removed from the incubator and allowed to equilibrate to room temperature for 30 minutes. CellTiter-Glo® (25 μL or 55 μL for 384-well or 96-well assays, respectively) reagent was added to each well and plates were shaken on an orbital plate shaker for 2 minutes. Plates were incubated without shaking for a further 30 minutes and read on an LJL Analyst GT reader in luminometer mode with an integration time of 0.5 seconds per well. Percent inhibition of cell growth was calculated relative to DMSO vehicle-treated control wells. Concentration of compound required to give 50% inhibition of vehicle-treated control cell growth (IC50) was interpolated using a 4-parameter fit for determining IC50 using the following equation: Y=A +((B−A)/(1+((C/X)̂D))) where […].

Colo205 tumor cells = experiment: Cell growth inhibition assay (CellTiter-Glo), Colo205; type: cell-based, Human; conditions: Homo sapiens, COLO 205, 72 h; 3 days incubation
How it was run: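 Cells plated at 500 cells/well in their growth media, dosed next day with nine-step 1:3 compound dilutions (final DMSO 0.2%), then incubated 3 days at 37° C, 5% CO2. Total ATP read by CellTiter-Glo luminescence as a surrogate for cell number; IC50 interpolated from 4-parameter fit versus DMSO controls.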

EGFR = target: T1, EGFR (Homo sapiens, UniProt P00533); experiment: EGFR substrate phosphorylation assay (HTRF); type: biochemical
T1 construct: made in house; host or cells: baculovirus expression system
How it was run: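 Baculovirus-expressed EGFR (0.8 nM) or ErbB2 (10 nM) in enzyme mix, preincubated 1 h at 20 °C with compound (0.00027–47.6 μM final), then 90 min at 20 °C with substrate mix of 20 μM ATP, 0.8 uM biotinylated Peptide C, MnCl2, MOPS pH 7.5. Phosphotyrosine by HTRF; pIC50 reported.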

BT474 tumor cells = experiment: Cell growth inhibition assay (CellTiter-Glo), BT474; type: cell-based, Human; conditions: Homo sapiens, BT-474, 72 h, 3 days incubation
Method: as §1, §2, §3

T1 sequence (P00533 25-1210): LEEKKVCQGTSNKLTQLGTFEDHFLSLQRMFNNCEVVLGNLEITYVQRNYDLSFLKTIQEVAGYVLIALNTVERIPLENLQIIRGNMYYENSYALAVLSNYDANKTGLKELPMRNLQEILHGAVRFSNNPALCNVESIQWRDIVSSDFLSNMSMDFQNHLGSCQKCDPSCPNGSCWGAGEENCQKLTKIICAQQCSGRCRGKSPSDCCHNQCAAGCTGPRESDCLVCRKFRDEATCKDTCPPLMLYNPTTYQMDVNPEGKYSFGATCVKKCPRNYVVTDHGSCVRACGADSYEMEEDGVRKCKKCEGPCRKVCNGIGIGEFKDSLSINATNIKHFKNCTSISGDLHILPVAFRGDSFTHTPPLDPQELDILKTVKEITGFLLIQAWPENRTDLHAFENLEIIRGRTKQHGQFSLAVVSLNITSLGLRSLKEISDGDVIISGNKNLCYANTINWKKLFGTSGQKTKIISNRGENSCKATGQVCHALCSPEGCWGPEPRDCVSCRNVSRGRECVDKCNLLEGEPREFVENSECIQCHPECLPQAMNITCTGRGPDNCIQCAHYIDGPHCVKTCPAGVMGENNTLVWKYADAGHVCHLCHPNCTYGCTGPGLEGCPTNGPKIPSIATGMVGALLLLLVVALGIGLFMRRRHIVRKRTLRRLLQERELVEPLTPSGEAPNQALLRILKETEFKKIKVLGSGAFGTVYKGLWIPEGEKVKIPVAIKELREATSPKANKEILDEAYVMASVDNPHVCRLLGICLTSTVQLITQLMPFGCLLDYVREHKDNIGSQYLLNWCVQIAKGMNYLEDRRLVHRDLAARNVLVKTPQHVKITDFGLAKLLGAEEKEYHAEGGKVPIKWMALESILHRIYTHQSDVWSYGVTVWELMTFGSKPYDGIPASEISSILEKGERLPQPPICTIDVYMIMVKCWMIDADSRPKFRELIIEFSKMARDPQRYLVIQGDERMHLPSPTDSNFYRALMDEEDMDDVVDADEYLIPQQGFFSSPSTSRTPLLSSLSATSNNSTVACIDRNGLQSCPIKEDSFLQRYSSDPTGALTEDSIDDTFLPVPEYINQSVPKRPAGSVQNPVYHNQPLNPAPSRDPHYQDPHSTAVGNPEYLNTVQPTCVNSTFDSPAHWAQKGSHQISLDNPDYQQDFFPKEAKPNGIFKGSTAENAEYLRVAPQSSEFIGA

Structure (SMILES) | pIC50 (SK-MEL-3 tumor cells) | pIC50 (Colo205 tumor cells) | pIC50 (EGFR) | pIC50 (BT474 tumor cells) | Activity in SK-MEL-3 Tumor Cells (SK-MEL-3 tumor cells)
COc1cc(N2CCC(N3CCN(CCS(C)(=O)=O)CC3)CC2)ccc1Nc1nccc(-c2sc(C(C)C)nc2-c2cccc(NS(=O)(=O)c3c(F)cccc3F)c2)n1 [Example 20, 2,6-Difluoro-N-{3-[2-(1-methylethyl)-5-(2-{[2-(methyloxy)-4-(4-{4-[2-(methylsulfonyl)ethyl]-1-piperazinyl}-1-piperidinyl)phenyl]amino}-4-pyrimidinyl)-1,3-thiazol-4-yl]phenyl}benzenesulfonamide] | 6.00 to 7.00 | > 7.00 | > 7.00 | < 6.00 | 
O=S(=O)(Nc1cccc(-c2nc(N3CCCC3)sc2-c2ccnc(Nc3ccc(N4CCN(CCF)CC4)c(F)c3)n2)c1)c1c(F)cccc1F [Example 21, 2,6-Difluoro-N-{3-[5-[2-({3-fluoro-4-[4-(2-fluoroethyl)-1-piperazinyl]phenyl}amino)-4-pyrimidinyl]-2-(1-pyrrolidinyl)-1,3-thiazol-4-yl]phenyl}benzenesulfonamide] | > 7.00 | > 7.00 | > 7.00 | < 6.00 | 
CC(C)c1nc(-c2ccc(F)c(NS(=O)(=O)c3ccccc3F)c2)c(-c2ccnc(Nc3ccc(N4CCN(CCS(C)(=O)=O)CC4)c(F)c3)n2)s1 [Example 22, 2-Fluoro-N-{2-fluoro-5-[5-{2-[(3-fluoro-4-}4-[2-(methylsulfonyl)ethyl]-1-piperazinyl}phenyl)amino]-4-pyrimidinyl}-2-(1-methylethyl)-1,3-thiazol-4-yl]phenyl}benzenesulfonamide hydrochloride] | 6.00 to 7.00 | > 7.00 | 6.00 to 7.00 | < 6.00 | 
CC(C)c1nc(-c2ccc(F)c(NS(=O)(=O)c3c(F)cccc3F)c2)c(-c2ccnc(Nc3ccc(N4CCOCC4)nc3)n2)s1 [Example 23, 2,6-Difluoro-N-{2-fluoro-5-[2-(1-methylethyl)-5-(2-{[6-(4-morpholinyl)-3-pyridinyl]amino}-4-pyrimidinyl)-1,3-thiazol-4-yl]phenyl}benzenesulfonamide] | > 7.00 | > 7.00 | 6.00 to 7.00 | < 6.00 | 
CC(C)c1nc(-c2ccc(F)c(NS(=O)(=O)c3c(F)cccc3F)c2)c(-c2ccnc(Nc3ccc(N4CCC(C#N)CC4)nc3)n2)s1 [Example 24, N-{5-[5-(2-{[6-(4-Cyano-1-piperidinyl)-3-pyridinyl]amino}-4-pyrimidinyl)-2-(1-methylethyl)-1,3-thiazol-4-yl]-2-fluorophenyl}-2,6-difluorobenzenesulfonamide] | 6.00 to 7.00 | > 7.00 | < 6.00 | < 6.00 | 
O=S(=O)(Nc1cc(-c2nc(N3CCCC3)sc2-c2ccnc(Nc3ccc(N4CCOCC4)nc3)n2)ccc1F)c1c(F)cccc1F [Example 26, 2,6-Difluoro-N-{2-fluoro-5-[5-(2-{(6-(4-morpholinyl)-3-pyridinyl]amino}-4-pyrimidinyl)-2-(1-pyrrolidinyl)-1,3-thiazol-4-yl]phenyl}benzenesulfonamide] | 6.00 to 7.00 | > 7.00 | 6.00 to 7.00 | < 6.00 | 
CC(C)(C)c1nc(-c2ccc(F)c(NS(=O)(=O)c3c(F)cccc3F)c2)c(-c2ccnc(Nc3ccc(N4CCOCC4)nc3)n2)s1 [Example 28, N-{5-[2-(1,1-Dimethylethyl)-5-(2-{[[6-(4-morpholinyl)-3-pyridinyl]amino}-4-pyrimidinyl)-1,3-thiazol-4-yl]-2-fluorophenyl]-2,6-difluorobenzenesulfonamide hydrochloride] | > 7.00 | > 7.00 | < 6.00 | < 6.00 | 
CC(C)c1nc(-c2cccc(NS(=O)(=O)c3c(F)cccc3F)c2F)c(-c2ccnc(Nc3ccc(N4CCN(CCF)CC4)c(F)c3)n2)s1 [Example 29, 2,6-Difluoro-N-{2-fluoro-3-[5-[2-({3-fluoro-4-[4-(2-fluoroethyl)-1-piperazinyl]phenyl}amino)-4-pyrimidinyl]-2-(1-methylethyl)-1,3-thiazol-4-yl]phenyl}benzenesulfonamide] | > 7.00 | > 7.00 | < 6.00 | < 6.00 | 
CC(C)c1nc(-c2cc(F)c(F)c(NS(=O)(=O)c3cccc(F)c3)c2)c(-c2ccnc(Nc3cnc(N4CCOCC4)c(F)c3)n2)s1 [Example 31, N-{2,3-Difluoro-5-[5-(2-{[5-fluoro-6-(4-morpholinyl)-3-pyridinyl]amino}-4-pyrimidinyl)-2-(1-methylethyl)-1,3-thiazol-4-yl]phenyl}-3-fluorobenzenesulfonamide] | 6.00 to 7.00 | 6.00 to 7.00 | < 6.00 | < 6.00 | 
CC(C)c1nc(-c2ccnc(NS(=O)(=O)c3c(F)cccc3F)c2)c(-c2ccnc(Nc3cnc(N4CCOCC4)c(F)c3)n2)s1 [Example 33] | > 7.00 | > 7.00 | < 6.00 | < 6.00 | 

Second part, led by results:

pIC50 (SK-MEL-3 tumor cells) | pIC50 (Colo205 tumor cells) | pIC50 (EGFR) | pIC50 (BT474 tumor cells) | Structure (SMILES) | Activity in SK-MEL-3 Tumor Cells (SK-MEL-3 tumor cells)
6.00 to 7.00 | > 7.00 | 6.00 to 7.00 | < 6.00 | CC(C)c1nc(-c2ccc(F)c(NS(=O)(=O)c3c(F)cccc3F)c2)c(-c2ccnc(Nc3ccc(N4CCN(CCF)CC4)c(F)c3)n2)s1 [Example 25] | 
> 7.00 | 6.00 to 7.00 | 6.00 to 7.00 | < 6.00 | CN(C)c1nc(-c2ccc(F)c(NS(=O)(=O)c3c(F)cccc3F)c2)c(-c2ccnc(Nc3ccc(N4CCOCC4)nc3)n2)s1 [Example 27, N-{5-[2-(Dimethylamino)-5-(2-{[6-(4-morpholinyl)-3-pyridinyl]amino}-4-pyrimidinyl)-1,3-thiazol-4-yl]-2-fluorophenyl}-2,6-difluorobenzenesulfonamide] | 
> 7.00 | > 7.00 | < 6.00 | < 6.00 | CC(C)c1nc(-c2cccc(NS(=O)(=O)c3c(F)cccc3F)c2F)c(-c2ccnc(Nc3cnc(N4CCOCC4)c(F)c3)n2)s1 [Example 30, 2,6-Difluoro-N-{2-fluoro-3-[5-(2-{[5-fluoro-6-(4-morpholinyl)-3-pyridinyl]amino}-4-pyrimidinyl)-2-(1-methylethyl)-1,3-thiazol-4-yl]phenyl}benzenesulfonamide] | 
> 7.00 | > 7.00 | < 6.00 | < 6.00 | CC(C)c1nc(-c2ccnc(NS(=O)(=O)c3c(F)cccc3F)c2)c(-c2ccnc(Nc3ccc(N4CCOCC4)nc3)n2)s1 [Example 32, 2,6-Difluoro-N-{4-[2-(1-methylethyl)-5-(2-{[6-(4-morpholinyl}-3-pyridinyl]amino}-4-pyrimidinyl)-1,3-thiazol-4-yl]-2-pyridinyl}benzenesulfonamide] | 
 | 6.00 to 7.00 | < 6.00 | < 6.00 | CCc1nc(-c2cccc(CNS(=O)(=O)c3ccccc3)c2)c(-c2ccnc(Nc3ccc(N4CCOCC4)c(F)c3)n2)s1 [Example 34] | + (activity of >1 μM in SK-MEL-3 tumor cells)
